Data on one compound can be found in patent US11130733B2, “4-OXO-alkylated tetramic acid compound, preparation method and use thereof” (BEIJING JOEKAI BIOTECH. LLC, priority 2017, dated 2021).

The subject of series [1] is Drosophilae containing and expressing human Abeta42 gene. The experiment in a line: Pavlov's olfactory-related instantaneous memory test in Drosophila. The series is classed as in vivo. Particulars: test medicament 100 μM, 50 μL per 100 drosophilae, 7 consecutive days; FIG. 1 and FIG. 2. An excerpt:
Drosophila has a classical learning and memory paradigm, known as Pavlov's olfactory-related instantaneous memory. During the training program, a group of about 100 drosophilae were exposed sequentially to two odors, i.e., 3-octanol and 4-methylcyclohexanol, each odor for 60 seconds, and to fresh air for 45 seconds therebetween. During exposure to the first odor, the drosophilae were electrocuted on their feet (1.5-second pulses at 3.5-second intervals, 60V), while no electrocution was exerted during exposure to the second odor. In order to detect “instantaneous memory” (also known as “learning”), drosophilae were transferred to the selection area in the T maze immediately after training and forced to choose between the two odors. The drosophilae in each T-maze arm were then captured, anesthetized, and counted. The behavior index was calculated from the distribution of drosophilae in the T maze. […] In each experiment, the age of the control group was matched with that of the experimental group.
Pharmacodynamic evaluation of the candidate compounds: Drosophilae containing and expressing human Abeta42 gene were selected as a diseased control, and drosophilae containing but not expressing human Abeta42 gene were selected as a healthy control. The day after emergence of the drosophilae, male drosophilae were selected and fed. Starting from the third day, drosophilae were fed with a test medicament (100 μM, 50 μL per 100 drosophilae) for 7 consecutive days, 4 hours each day. The above memory test was performed on the drosophilae on the tenth day.

A further series has as its target hERG potassium channel (Homo sapiens, UniProt Q12809). The experiment in a line: hERG current, whole-cell patch clamp on HEK-hERG stable cell line. Type of series: cell-based. The text has this:
Rapidly activated human delayed rectifier outward potassium current (IKr) is mainly mediated by hERG ion channels, and participates in human cardiomyocyte repolarization. Pharmaceutical blockade of this current is the main cause of prolonged QT syndrome, even acute arrhythmia and sudden death clinically.
In this experiment, a stable cell line HEK-hERG (from the Academy of Military Medical Sciences) was selected, and the whole-cell patch clamp technique was used to record the hERG current. Cell suspension was collected and added to a 35 mm culture dish, which was placed on an inverted microscope carrier. After cell attachment, perfusion was performed with an extracellular fluid at a flow rate of 1-2 mL/min. A glass microelectrode was drawn in two steps by a micropipette puller, and after filling with electrode inner fluid, the water resistance of the glass microelectrode was 2-5 MΩ. After the whole cell recording mode was established, the clamping potential was maintained to −80 mV. A depolarization voltage was exerted to +60 mV for 850 ms, followed by repolarization to −50 mV for 1275 ms to induce an hERG tail current. After current stabilization, continuous extracellular perfusion administration from a low concentration to a high concentration was adopted. Starting from the low concentration, continuous perfusion was performed until the efficacy was stable, followed by perfusion of the next concentration. When the inhibitory rate of a compound or positive control to the hERG current was less than 50%, the CV of each of five consecutive current values was less than 10%. When the inhibitory rate of a compound or positive control to the hERG current was more than 50% but less than 70%, the CV of each of five consecutive current values was less than 20%. If a current amplitude was reduced by less than 200 pA, or if the inhibitory rate was more than 70%, the CV of each of five consecutive current values was less than 30%.
A certain amount of a test sample was weighed and dissolved into DMSO to prepare a 30 mM stock solution. Prior to the experiment, the above stock solution was diluted by DMSO 10 times and 3 times step by step, and then the solution was diluted by extracellular fluid to a required concentration. The solution at working concentration should be checked for precipitation before use. If precipitation existed, the stock solution would be diluted to increase the final concentration of DMSO in the extracellular fluid. However, the final concentration of DMSO in the extracellular fluid would not exceed 0.5%. Continuous perfusion from low to high concentrations was done during the experiment. The half inhibitory concentration (IC50) of the test sample was obtained by the best fitting of Logistic equation.
When data were processed, stimulus release and signal acquisition were carried out by the software patchmaster; and a patch clamp amplifier amplified the signal and filtered it to 10 KHz. Fitmaster, excel, spass 21.0, and the like were used for further data analysis and curve fitting. The data were shown as mean values±standard deviation. In data processing, when the blocking effect on hERG was determined, the peak value of a tail current and its baseline were corrected. The inhibitory rates of the tail current were used to show the effects of various compounds at different concentrations. The inhibitory rate=100×(the peak value of the tail current before administration−the peak value of the tail current after administration)/the peak value of the tail current before administration %. IC50 values were fitted by the Hill equation:
[formula] wherein, y: I/Icontrol; max: 100%; min: 0%; [drug]: concentration of the test sample; nH: Hill slope; IC50: maximum half inhibition concentration of the test substance.
To induce a peak current of hERG tail current, the clamping potential was maintained at −80 mV, depolarized to 60 mV for 0.85 s, and then repolarized to −50 mV for 1.275 s. […]
Background: The hERG channel carries a current that helps repolarise heart muscle cells.

The mark [2] stands for this setting: human, Inhibitory effect, Mean value ± standard deviation.
Setting [3] is: human, Inhibitory effect, individual cells 1-4.

Chain of hERG potassium channel (Q12809 whole entry): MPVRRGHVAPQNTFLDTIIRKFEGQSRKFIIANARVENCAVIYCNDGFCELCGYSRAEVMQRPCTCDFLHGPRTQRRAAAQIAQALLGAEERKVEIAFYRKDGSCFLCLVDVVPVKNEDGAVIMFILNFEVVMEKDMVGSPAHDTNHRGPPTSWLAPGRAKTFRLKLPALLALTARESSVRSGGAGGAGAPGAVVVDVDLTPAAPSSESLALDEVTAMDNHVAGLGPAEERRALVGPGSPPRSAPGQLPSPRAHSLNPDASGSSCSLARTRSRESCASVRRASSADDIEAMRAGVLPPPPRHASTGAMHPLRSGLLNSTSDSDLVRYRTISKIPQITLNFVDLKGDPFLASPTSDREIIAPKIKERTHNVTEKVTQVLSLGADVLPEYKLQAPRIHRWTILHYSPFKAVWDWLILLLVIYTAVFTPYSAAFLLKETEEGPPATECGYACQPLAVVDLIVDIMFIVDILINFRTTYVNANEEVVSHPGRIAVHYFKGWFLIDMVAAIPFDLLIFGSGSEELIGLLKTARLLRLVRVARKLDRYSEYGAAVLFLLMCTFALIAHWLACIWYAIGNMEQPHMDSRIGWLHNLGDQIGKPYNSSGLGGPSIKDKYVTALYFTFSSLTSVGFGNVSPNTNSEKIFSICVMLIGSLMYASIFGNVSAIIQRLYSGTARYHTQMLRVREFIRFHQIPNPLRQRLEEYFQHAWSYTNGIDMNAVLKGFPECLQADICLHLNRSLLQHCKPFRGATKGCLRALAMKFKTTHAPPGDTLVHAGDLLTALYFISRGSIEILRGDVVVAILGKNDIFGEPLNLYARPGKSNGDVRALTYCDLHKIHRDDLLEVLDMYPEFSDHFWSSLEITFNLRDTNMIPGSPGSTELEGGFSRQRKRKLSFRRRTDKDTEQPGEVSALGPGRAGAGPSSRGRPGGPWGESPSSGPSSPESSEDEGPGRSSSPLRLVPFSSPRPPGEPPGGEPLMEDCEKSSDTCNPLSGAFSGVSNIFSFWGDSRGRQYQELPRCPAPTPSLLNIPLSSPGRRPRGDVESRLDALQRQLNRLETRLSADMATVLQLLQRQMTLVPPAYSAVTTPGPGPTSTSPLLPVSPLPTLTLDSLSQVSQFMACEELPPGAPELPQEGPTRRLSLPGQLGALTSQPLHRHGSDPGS

In the case of `O=C1C=C(OCc2ccc(F)cc2)[C@H](Cc2ccccc2)N1` [Compound 50561], the “ability to improve the learning and memory of drosophilae” value in series [1] is “best ability to improve the learning and memory of drosophilae”. Besides, on hERG potassium channel (Hill equation fit, N=4), the Hill coefficient (usually the slope factor of the fitted curve) is 1.01. Moreover, inhibition on hERG potassium channel (human) was half-maximal at 26.7 µM (IC50). In addition, on hERG potassium channel (setting [2]), testing at 300 nM gave an inhibition of 0.84 ± 3.93%; 1 µM produced 3.43 ± 4.42% inhibition; the inhibition (as a rule, how much of the control response was suppressed) at 3 µM was 11.3 ± 4.09%; the inhibition at 10 µM is 25.7 ± 1.31%. On hERG potassium channel (setting [2]), this compound came in with an inhibition at 30 µM of 53.6 ± 3.6%. On hERG potassium channel (setting [3]), this compound displayed an inhibition at 10 µM of 24.1% and an inhibition at 30 µM of 59.6%.
